These results are taken from ChEMBL document CHEMBL1201862, “PubChem BioAssay data set” (2004).

Among the test systems are HOP-92; SN12C; DLD-1; SNB-78; SF-539; KM12; KM-20L2; UACC-257; MCF7; NCI/ADR-RES; HCC 2998; MDA-N; SR; MDA-MB-231; Hs-578T; DU-145; T47D; MDA-MB-435; PC-3; TK-10.
Assay in all cases: inhibition of tumour cell growth, NCI panel, 48 h

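Each compound was tested at five concentrations against cells in 96-well plates for 48 hours. GI50: concentration for 50% inhibition of growth.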 Active and inactive are the calls of the source. Rule as the data show it: active = GI50 up to about 1.1 µM and inactive = higher.

With `CC1=C2C(O)C(C(C)C(=O)NC(C)C)CCC2(C)C=CC1=O` (stereo not drawn), the GI50 with HOP-92, with SN12C, with DLD-1, with SNB-78, in the experiment with SF-539 and in the experiment with KM12 was > 100 µM (inactive) each time. The GI50 in the experiment with KM-20L2, in the experiment on UACC-257, in the experiment with MCF7, in the experiment with NCI/ADR-RES and in the experiment on HCC 2998 was > 100 µM (inactive) in each case.

Regarding `CC(=O)OC1CCC2(C)C3CCC4(C)C(c5ccc(=O)oc5)CC5OC54C3CCC2(O)C1` (stereo not drawn), the GI50 in the experiment with HOP-92 is 2.45 µM (inactive); in the experiment on SN12C, 0.617 µM (active); in the experiment with DLD-1, 0.521 µM (active); with SNB-78 it was 1.14 µM (inactive); in the experiment on SF-539, 0.75 µM (active); in the experiment on KM12 it was 3.21 µM (inactive). The GI50 with KM-20L2 was 2.15 µM (inactive); in the experiment on UACC-257, 3.04 µM (inactive); in the experiment with MCF7, 2.31 µM (inactive); with NCI/ADR-RES it was 1.08 µM (active); in the experiment on HCC 2998, 2.98 µM (inactive).

As to `CON(C)c1nc(N(C)OC)nc(N(C)OC)n1`, the GI50 in the experiment on SN12C, in the experiment with MDA-N, in the experiment with SR, with SF-539, in the experiment on KM12 and with MDA-MB-231 was > 10 µM (inactive) each time. Further, the GI50 with Hs-578T, in the experiment on DU-145, in the experiment on T47D, in the experiment with MDA-MB-435, in the experiment with MCF7 and with NCI/ADR-RES was > 10 µM (inactive) throughout. Besides, the GI50 in the experiment with PC-3, with TK-10 and in the experiment on HCC 2998 was > 10 µM (inactive) each time.

For `Cc1cn(C2CC(N)C(C(=O)NCC(=O)O)O2)c(=O)[nH]c1=O` (stereo not drawn), the GI50 in the experiment on HOP-92, in the experiment on SN12C, with MDA-N, with SR, with KM12 and in the experiment on MDA-MB-231 was > 100 µM (inactive) each time. Further, the GI50 in the experiment on Hs-578T, with DU-145, with T47D, in the experiment on MDA-MB-435, in the experiment with MCF7 and in the experiment with NCI/ADR-RES was > 100 µM (inactive) each time. Also, the GI50 in the experiment with PC-3, with TK-10 and in the experiment on HCC 2998 was > 100 µM (inactive) each time.

Take `COc1ccc(/C(Cl)=C(\C=O)c2ccc(F)cc2)cc1OC`: the GI50 was 6.32 µM (inactive) with HOP-92; 15.9 µM (inactive) in the experiment with SN12C; 21.8 µM (inactive) in the experiment on DLD-1; 15.3 µM (inactive) in the experiment with SNB-78; 23 µM (inactive) in the experiment with SF-539; 16.2 µM (inactive) in the experiment on KM-20L2. For the same molecule, the GI50 in the experiment with TK-10 was 34.3 µM (inactive).

As for `COC(=O)C(C(=O)C(=O)Nc1nnc(S)[nH]1)c1csc(-n2nc(-c3ccccc3)cc2-c2ccccc2)n1` (stereo not drawn), the GI50 is 44.5 µM (inactive) in the experiment on HOP-92; > 100 µM (inactive) in the experiment with SN12C; > 100 µM (inactive) in the experiment with DLD-1; > 100 µM (inactive) in the experiment on SR; > 100 µM (inactive) in the experiment with SNB-78; > 100 µM (inactive) with KM12. The GI50 with KM-20L2, with UACC-257, in the experiment on TK-10 and in the experiment with HCC 2998 was > 100 µM (inactive) throughout.

In the case of `CCN1CCC(O)(C(C(=O)O)c2ccccc2)CC1` (stereo not drawn), the GI50 in the experiment on SR, in the experiment on KM12, with MDA-MB-231, with Hs-578T, in the experiment with UACC-257 and in the experiment on DU-145 was > 100 µM (inactive) each time. For the same molecule, the GI50 with T47D, in the experiment with MDA-MB-435, in the experiment on MCF7, in the experiment on NCI/ADR-RES, with PC-3 and with TK-10 was > 100 µM (inactive) in each case. Also, the GI50 in the experiment on HCC 2998 is > 100 µM (inactive).

In the case of `O=C(N/N=C/c1cc(Br)cc(Br)c1O)c1ccccc1O`, the GI50 is 1.2 µM (inactive) with HOP-92; 0.258 µM (active) in the experiment with SR; 0.61 µM (active) in the experiment on SF-539; 1.43 µM (inactive) in the experiment on KM12; 2 µM (inactive) in the experiment with KM-20L2; 2.26 µM (inactive) in the experiment on UACC-257. Moreover, the GI50 with TK-10 is 0.944 µM (active); with HCC 2998, 1.03 µM (active).

For the molecule `COc1nc(C#CCC(C)O)nc(OC)n1` (stereo not drawn), the GI50 in the experiment with SN12C is 19.5 µM (inactive); in the experiment with MDA-N it was 30.6 µM (inactive); in the experiment on SR, 21.1 µM (inactive); in the experiment with SF-539 it was 26 µM (inactive); with KM12, 24.5 µM (inactive); in the experiment on MDA-MB-231, 21.2 µM (inactive). Also, the GI50 in the experiment on Hs-578T was 25.7 µM (inactive); in the experiment with UACC-257, 30.9 µM (inactive); in the experiment with DU-145, 22.9 µM (inactive); in the experiment with T47D, 47.8 µM (inactive); in the experiment with MDA-MB-435 it was 17.9 µM (inactive); in the experiment with MCF7 it was 13.1 µM (inactive). Moreover, the GI50 is 21 µM (inactive) with NCI/ADR-RES, 22.6 µM (inactive) in the experiment on PC-3 and 24.2 µM (inactive) with TK-10.

`COC1OC2COC(c3ccccc3)OC2C(OC(=S)c2ccccc2)C1O` (stereo not drawn): the GI50 in the experiment with HOP-92 is > 100 µM (inactive); in the experiment on SN12C, 46.3 µM (inactive); with MDA-N, > 100 µM (inactive); in the experiment with SR it was > 100 µM (inactive); with SF-539, 13.2 µM (inactive); in the experiment with MDA-MB-231, 14.7 µM (inactive). Also, the GI50 with Hs-578T was 27.2 µM (inactive); with UACC-257, > 100 µM (inactive); with DU-145 it was > 100 µM (inactive); with T47D, 1.91 µM (inactive); with MDA-MB-435, 10.9 µM (inactive); with MCF7 it was > 100 µM (inactive). In addition, the GI50 is 15.5 µM (inactive) in the experiment on NCI/ADR-RES, 4.61 µM (inactive) in the experiment with PC-3 and 28.2 µM (inactive) in the experiment with TK-10.

As for `N#Cc1c(OCCF)c2ccccc2n2c1nc1ccccc12`, the GI50 with MDA-N was > 100 µM (inactive); in the experiment with SR it was > 100 µM (inactive); in the experiment on SF-539, 16.9 µM (inactive); in the experiment with KM12, > 100 µM (inactive); in the experiment with MDA-MB-231 it was > 100 µM (inactive); in the experiment with Hs-578T, 17.3 µM (inactive). Also, the GI50 was 93.3 µM (inactive) with UACC-257; 79.8 µM (inactive) in the experiment with DU-145; > 100 µM (inactive) with T47D; 46.5 µM (inactive) in the experiment on MDA-MB-435; 16.6 µM (inactive) with MCF7; 45.3 µM (inactive) in the experiment with NCI/ADR-RES. Besides, the results for the GI50 in the experiment on PC-3, with TK-10 and in the experiment on HCC 2998 were 59.2 µM (inactive), 31.1 µM (inactive) and > 100 µM (inactive), respectively.

For the molecule `N#CN=C(NCCO)NCCO`, the GI50 in the experiment with SN12C, in the experiment with DLD-1, in the experiment with SR, in the experiment on SNB-78, in the experiment on SF-539 and with KM12 was > 100 µM (inactive) in each case. In addition, the GI50 in the experiment on KM-20L2, with UACC-257 and in the experiment on HCC 2998 was > 100 µM (inactive) in each case.

As to `COCCCNc1nc(N)c(C#N)c(C#N)c1C#N`, the GI50 with SN12C, in the experiment with MDA-N, in the experiment with SR, with SF-539, in the experiment with KM12 and in the experiment with MDA-MB-231 was > 10 µM (inactive) each time. Further, the GI50 in the experiment on Hs-578T, in the experiment with DU-145, with T47D, with MDA-MB-435, with MCF7 and in the experiment with NCI/ADR-RES was > 10 µM (inactive) in each case. Further, the GI50 in the experiment with PC-3, in the experiment with TK-10 and with HCC 2998 was > 10 µM (inactive) in each case.

In the case of `C=CCc1c(O)c2c(c3oc(=O)cc(C)c13)CC(C)O2` (stereo not drawn), the GI50 in the experiment on SN12C is > 100 µM (inactive); in the experiment on DLD-1, 48.6 µM (inactive); in the experiment with SR it was > 100 µM (inactive); in the experiment on SNB-78, > 100 µM (inactive); in the experiment on SF-539, > 100 µM (inactive); in the experiment with KM-20L2, > 100 µM (inactive). In addition, the GI50 in the experiment with UACC-257, in the experiment on TK-10 and with HCC 2998 was > 100 µM (inactive) throughout.
